Where “and” joins values, the source holds several entries; their conditions need not be identical. Equal entries are not always repeated.
Legend:
L1210 leukemia = assay: Antitumor activity vs transplantable L1210 leukemia (ip) in mice; assay type: in vivo, mouse; settings: for Max % T/C: dying mice only; for OD (optimum dose): optimum dose from the L1210 test
Source text: The antitumor activities of the complexes provided by the present invention have been determined against L-1210 leukemia in the mouse and, for certain of the complexes, against other mouse tumor systems.
(§1) Results of antitumor testing against the transplantable mouse tumors L1210 leukemia, cisplatin-resistant L1210 leukemia, B16 melanoma, Madison 109 lung carcinoma and colon 26 carcinoma are shown below in Tables 1 and 2.
In Table 1 are shown the maximum % T/C values obtained for each platinum compound versus L1210 leukemia using both single and qd 1→5 dosing.
(§2) The methods used to evaluate the platinum complexes for antitumor activity and toxicity in animals are summarized below. These methods have been published elsewhere in more detail (Rose, et al. Cancer Treat. Rep. 66: 135, 1982; Florczyk, et al, Cancer Treat. Rep. 66: 187, 1982).
(§3) The parent line of L1210 leukemia (L1210) was maintained in DBA/2 mice by ip transplantation of 10^5 cells at weekly intervals. […] B16 malenoma (B16) was maintained by sc transplant in C57BL/6 mice every two weeks. Madison 109 lung carcinoma (M109) and colon 26 carcinoma (C26) were maintained by sc transplant in BALB/c mice every two weeks.
(§4) The level and route of tumor inoculum, host, group size, and drug treatment schedule and route for each tumor type are summarized below in Table 6. Each complex was evaluated initially against L1210 at 4 dose levels per schedule selected on the basis of lethality data provided by the Wadley Institute. In subsequent experiments with the other tumors the complexes were evaluated at a minimum of 3 dose levels selected on the basis of maximum tolerated levels in the L1210 experiments. Cisplatin-treated groups and a saline-treated (or untreated) tumor control group were included in each experiment.
(§5) The L1210 experiments were terminated on Day 30 whereas the B16, C26 and M109 experiments were terminated on Day 60 (some C26 experiments were terminated on Day 75). Mice alive at the termination day were autopsied and considered cured if no tumor was visible. […] A complex was considered active if it produced a % T/C value ≥125.

BDF1 mice [1] = assay: Nephrotoxicity: effect on blood urea nitrogen (BUN) in BDF1 mice; settings: for BUN↑, Mouse: effect relative to cisplatin
Protocol: The other compounds were in such short supply that they were tested for effects on BUN values using the optimum dose (O.D.) from the L1210 test for dose selection.
The toxicity studies were done in male BDF1 mice (25-29 gm) and castrated male Fitch ferrets (1-1.5 kg).
The complexes that were active against L1210 were evaluated for nephrotoxicity by determining their effects on blood urea nitrogen (BUN) levels in mice. Groups of 40-50 mice/experiment were bled from the retro-orbital plexus and individual BUN values determined by a modified urease method using a Centrifichem System 400. The test complex, or saline for controls, was given at several dose levels (5-10 mice/dose) in single ip injections. The highest dose of the complex usually corresponded to its LD50 value or 1.5 times its optimal single dose in the L1210 experiment. At least two lower doses were included to evaluate dose-related effects. The BUN values were measured 4 and 7 days after dosing. BUN values ≥30 mg% were considered indicative of drug-induced nephrotoxicity.

[2] = test system: L1210/CDDP (cisplatin resistant line of L1210 leukemia); assay: Antitumor activity vs cisplatin-resistant L1210 leukemia (L1210/CDDP) in mice; assay type: in vivo, mouse; settings: for O.D. (optimal dose) / Cures/total: Day 1; for Max % T/C: Day 1, dying mice only
Source text: Results of antitumor testing against the transplantable mouse tumors L1210 leukemia, cisplatin-resistant L1210 leukemia, B16 melanoma, Madison 109 lung carcinoma and colon 26 carcinoma are shown below in Tables 1 and 2. […]
as §2, §3, §4, §5

M109 carcinoma = assay: Antitumor activity vs ip M109 (Madison 109 lung) carcinoma in mice; assay type: in vivo, mouse; parameters: O.D.: unit not given here; settings: for O.D.: ip M109 (2×; 4×); for Max. % T/C: ip M109 (2×; 4×): q3d × 2 or qd 1-4, ip, dying mice only
Source text: as §1, §2, §3, §4, §5
8 q3d^a × 2 or qd 1-4, ip

C26 carcinoma = assay: Antitumor activity vs ip C26 (colon 26) carcinoma in mice; assay type: in vivo, mouse; parameters: O.D.: unit not given here; settings: for O.D.: ip C26 (2×; 4×); for Max. % T/C: ip C26 (2×; 4×): q3d × 2 or qd 1-4, ip, dying mice only
Source text: as §1, §2, §3, §4, §5
8 q3d^b × 2 or qd 1-4, ip

BDF1 mice [3] = assay: Deaths (D.14) in the BUN test in BDF1 mice; assay type: in vivo, mouse
ferret = assay: Emetic effects (and lethality) in the ferret; assay type: in vivo, castrated male Fitch ferrets; settings: for No. With Emesis/No. tested: 6 h observation
Protocol: Selected complexes were evaluated for emetic effects in ferrets. […] The time to the first emetic episode (retching and expulsion of vomitus) and the number of episodes were recorded. […] Subsequent test doses were selected based on the emetic response and lethality of the initial dose.

B16 melanoma = assay: Antitumor activity vs ip B16 melanoma in mice; assay type: in vivo, mouse; parameters: O.D.: unit not given here; settings: for O.D.: ip B16 (3×; 9×); for Max. % T/C: ip B16 (3×; 9×): q4d × 3 or qd 1-9, ip, dying mice only
Source text: as §2, §3
The level and route of tumor inoculum, host, group size, and drug treatment schedule and route for each tumor type are summarized below in Table 6. Each complex was evaluated initially against L1210 at 4 dose levels per schedule selected on the basis of lethality data provided by the Wadley Institute.
as §5

[4] = Solubility stated in the preparation examples
[5] = L1210, single dose Day 1, ip, (a), (b) determinations
[6] = L1210, single dose Day 1, ip, dose giving the Max % T/C, same order

SMILES	O.D. (optimal dose) (L1210 leukemia; L1210, QD 1 → 5, ip)	Max % T/C (L1210 leukemia; L1210, QD 1 → 5, ip)	Max % T/C (L1210 leukemia; [5])	O.D. (optimal dose) (L1210 leukemia; [6])	OD (optimum dose) (L1210 leukemia)	BUN↑, Mouse (BDF1 mice [1])	O.D. (optimal dose) [2]	Max % T/C [2]	O.D. (M109 carcinoma)	Max. % T/C (M109 carcinoma)	O.D. (C26 carcinoma)	Max. % T/C (C26 carcinoma)	O.D. (B16 melanoma)	Max. % T/C (B16 melanoma)	Cures/total [2]	further results
Cc1cn(C2CC(O)C(COP(=O)([O-])[O-])O2)c(=O)[nH]c1=O.NC1CCCCC1N.[Pt+2] (stereo not drawn) [Example 6, thymidylato trans(-)-1,2-diaminocyclohexane platinum(II)]	10 mg/kg/inj	221%	200% and 207%	40 mg/kg/inj and 45 mg/kg/inj	40 mg/kg/ip	0	20 mg/kg/inj	175%	12	95%	36	109%	6	177%		Incidence of BUN > 30 mg % (BDF1 mice [1]; 40 mg/kg ip): 0/5; Incidence of BUN > 30 mg % (BDF1 mice [1]; 60 mg/kg ip): 0/5; Deaths D.14 (BDF1 mice [3]; 40 mg/kg ip): 0/5; Deaths D.14 (BDF1 mice [3]; 60 mg/kg ip): 0/5; Emesis Episodes (ferret; 32 mg/kg iv): 13.5; Emesis onset in responding animals (ferret; 32 mg/kg iv): 17.5 min; No. With Emesis/No. tested (ferret; 32 mg/kg iv (lethal dose)): 2/2; Lethal dose (ferret; ferret, doses marked * = Lethal dose): 32 mg/kg iv
N[C@@H]1CCCC[C@H]1N.[O-]B([O-])O.[Pt+2] [Example 1, borato trans(-)-1,2-diaminocyclohexane platinum(II)]	2 mg/kg/inj	243%	214% and 242%	16 mg/kg/inj and 8 mg/kg/inj	16 mg/kg/ip	0	8 mg/kg/inj	188%	2	147%	5	134%	1	150%	2/6	Incidence of BUN > 30 mg % (BDF1 mice [1]; 16 mg/kg ip): 0/5; Incidence of BUN > 30 mg % (BDF1 mice [1]; 24 mg/kg ip): 0/3; Deaths D.14 (BDF1 mice [3]; 16 mg/kg ip): 0/5; Deaths D.14 (BDF1 mice [3]; 24 mg/kg ip): 3/5
N[C@@H]1CCCC[C@H]1N.O=C([O-])CCC(=O)C(=O)[O-].[Pt+2] (relative stereo) [Example 14, 2-ketoglutarato trans(-)-1,2-diaminocyclohexane platinum(II)]	16 mg/kg/inj	250%	214% and 193%	16 mg/kg/inj			12 mg/kg/inj	169%					3	135%	2/6	
N[C@@H]1CCCC[C@H]1N.O=C([O-])CC(=O)C(=O)[O-].[Pt+2] (relative stereo) [Example 2, oxaloacetato trans(-)-1,2-diaminocyclohexane platinum(II)]	7.5 mg/kg/inj	243%	214% and 217%	30 mg/kg/inj and 40 mg/kg/inj	30 mg/kg/ip	0	24 mg/kg/inj	194%	12	156%	10	143%	2	150%	4/6	Incidence of BUN > 30 mg % (BDF1 mice [1]; 30 mg/kg ip): 0/5; Incidence of BUN > 30 mg % (BDF1 mice [1]; 45 mg/kg ip): 0/4; Deaths D.14 (BDF1 mice [3]; 30 mg/kg ip): 0/5; Deaths D.14 (BDF1 mice [3]; 45 mg/kg ip): 1/5; Emesis Episodes (ferret; 16 mg/kg iv): 3; Emesis onset in responding animals (ferret; 16 mg/kg iv): 41 min; No. With Emesis/No. tested (ferret; 16 mg/kg iv): 1/1
CC(=O)CC(=O)[O-].CC(=O)CC(=O)[O-].N[C@@H]1CCCC[C@H]1N.[Pt+2] (relative stereo) [Example 4, bis(acetoacetato) trans(-)-1,2-diaminocyclohexane platinum(II)]	5 mg/kg/inj	214%	200% and 207%	20 mg/kg/inj and 18 mg/kg/inj	20 mg/kg/ip	0	12 mg/kg/inj	163%	8	119%	5	120%	1	150%		Cures/total (L1210 leukemia; L1210, QD 1 → 5, ip): 1/6; Incidence of BUN > 30 mg % (BDF1 mice [1]; 20 mg/kg ip): 0/5; Incidence of BUN > 30 mg % (BDF1 mice [1]; 30 mg/kg ip): 0/5; Deaths D.14 (BDF1 mice [3]; 20 mg/kg ip): 0/5; Deaths D.14 (BDF1 mice [3]; 30 mg/kg ip): 0/5
NCC1(N)CCCCCCC1.[O-]B([O-])O.[Pt+2] [Example 13, borato 1-aminomethylcyclooctylamine platinum(II)]	4 mg/kg/inj	207%	229% and 207%	16 mg/kg/inj	16 mg/kg/ip	0	8 mg/kg/inj	256%	3	81%	8	88%	2	167%	2/6	Solubility in methanol ([4]; methanol): soluble; Solubility in water ([4]; water): soluble; Incidence of BUN > 30 mg % (BDF1 mice [1]; 16 mg/kg ip): 0/5; Incidence of BUN > 30 mg % (BDF1 mice [1]; 24 mg/kg ip): 0/5; Ratio of Max. % T/C Complex/cDDP (M109 carcinoma; ip M109, relative to concomitant cisplatin): .52; Ratio of Max. % T/C Complex/cDDP (C26 carcinoma; ip C26, relative to concomitant cisplatin): .61; Deaths D.14 (BDF1 mice [3]; 16 mg/kg ip): 0/5; Deaths D.14 (BDF1 mice [3]; 24 mg/kg ip): 0/5; Ratio of Max. % T/C Complex/cDDP (B16 melanoma; ip B16, relative to concomitant cisplatin): .90
N[C@@H]1CCCC[C@H]1N.[O]=[Cr](=[O])([O-])[O-].[Pt+2] (relative stereo) [Example 9, chromato trans(-)-1,2-diaminocyclohexane platinum(II)]	6 mg/kg/inj and 12 mg/kg/inj	143% and 214%	150% and 200%	24 mg/kg/inj and 48 mg/kg/inj	48 mg/kg/ip	0			20	119%	24	106%	6	172%		Incidence of BUN > 30 mg % (BDF1 mice [1]; 48 mg/kg ip): 0/5; Incidence of BUN > 30 mg % (BDF1 mice [1]; 72 mg/kg ip): 0/5; Deaths D.14 (BDF1 mice [3]; 48 mg/kg ip): 0/5; Deaths D.14 (BDF1 mice [3]; 72 mg/kg ip): 0/5
